The record followed here is PubChem BioAssay AID463206 (Broad Institute, 2010).

In this test the test system is INS-1E cytokine-induced caspase-3/7, Caspase-Glo luminescence, 48 h. The experiment in a line: suppression of cytokine-driven beta-cell apoptosis – INS-1E rat cells, luminescence, orthogonal assay for beta-cell apoptosis protection project, dose response (AID 463206).

Calls of active or inactive are those of the source.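 How the source made its calls: active means caspase luminescence falls with dose and the half-maximal concentration AC50 from the fitted curve is at or below a set limit; inconclusive means flat fit at 30 to 70% signal loss, or invalid fit; inactive means AC50 above the limit, or signal rises instead.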 Bounds are passed on as bounds.

What is called AC50 is the midpoint of the concentration-response curve, whichever way the signal moves.

Regarding `O=[N+]([O-])c1ccc(/C=N/n2cnc3ccccc32)s1`, the AC50 is > 26 µM (inactive). With `Nc1ccc(Nc2ccccc2)cc1` the figure was 17.7 µM; with `COCCN(C(=O)COC(=O)C1CCC(C(C)(C)C)CC1)c1c(N)n(Cc2ccccc2)c(=O)[nH]c1=O` (stereo not drawn), > 26 µM (inactive).

For the compound `O=C(COc1ccccc1-c1ccccc1)N/N=C/c1ccc2ccccc2c1`, the AC50 was > 12 µM (inactive). To `CC(C)(C)OC(=O)N1CCC(CNC(=O)c2cccs2)CC1` belongs > 26 µM (inactive). Consider `CCn1c(-c2ccc(C)cc2)nn(CC(=O)NCCc2ccccc2)c1=S`, for which the AC50 was > 26 µM (inactive).

Regarding `c1ccc(C2(Cn3ccc4ccccc43)OCCO2)cc1`, the AC50 was > 26 µM (inactive). In the case of `NC(=O)c1ccccc1OC1CCC1`, the AC50 was > 26 µM (inactive). With `CCCCCc1ccc(OCCCC[n+]2ccccc2)c(CCCCC)c1`, the AC50 was > 26 µM (inactive). To `CCCOc1ccc(Cc2c(Cl)nc(SC)nc2NC)cc1` belongs > 26 µM (inactive); to `N/C(=N\NC(=O)c1sccc1OCc1ccc(Cl)cc1Cl)c1ccccn1`, > 26 µM (inactive). Turning to `CCCCC(=O)N1C/C=C\C(c2ccc(OC)cc2)N(Cc2ccc(F)cc2)C(=O)[C@H]1Cc1ccccc1` (stereo partly drawn), the AC50 was > 26 µM (inactive). With `CC1=NNC(=O)/C1=C\c1cn(-c2ccccc2)nc1-c1ccccc1`, the AC50 is > 26 µM (inactive).

For `O=C(Oc1c(CN2CCOCC2)cc(Cl)c2cccnc12)c1ccccc1Br`, the AC50 is > 26 µM (inactive). As for `Cc1ccc(NC(=O)C2CCN(S(=O)(=O)c3ccc4c(c3)NC(=O)C(C)S4)CC2)cc1Cl` (stereo not drawn), the AC50 is > 26 µM (inactive).

In the case of `O=C(Nc1ccc([N+](=O)[O-])cc1)Nc1nc(-c2ccc(Cl)s2)cs1`, the AC50 is > 26 µM (inactive). As to `C/C(=N\Nc1nc2ccccc2[nH]1)c1ccccn1`, the AC50 was > 26 µM (inactive).

For `Cc1noc(-c2ccc(C(F)(F)F)cc2)c1NC(=O)Nc1ccc(Cl)cc1`, the AC50 is > 26 µM (inactive).

In the case of `COc1cccc(/C=N/NC(=O)c2c(C)nc3ccc(Br)cn23)c1O`, the AC50 was > 26 µM (inactive). To `c1ccc2c(CN3CCCCCC3)c[nH]c2c1` belongs 4.24 µM; to `CN(C)c1cc[n+](Cc2c(Cl)cccc2Cl)cc1`, > 26 µM (inactive). With `COc1cccc(/C=N/Nc2nc(Nc3ccccc3)nc(-n3nc(C)cc3C)n2)c1O` the figure was > 26 µM (inactive). With `CCOC(=O)c1c(NC(=O)c2cc(-c3ccc(Cl)s3)nc3ccccc23)sc(C(N)=O)c1C` the figure was > 26 µM (inactive); with `Cc1ccc(-c2c[n+]3c(n2-c2ccccc2)SCC3)cc1`, > 26 µM (inactive). For the compound `Cc1ccc(C2(c3ccc(C)cc3)CC2C(=O)Nc2ccc([N+](=O)[O-])cc2O)cc1` (stereo not drawn), the AC50 is > 26 µM (inactive). With `O=C(N/N=C/c1ccc(O)cc1O)/C(=C/c1ccccc1)CCO` the figure was > 26 µM (inactive). In the case of `Cc1cc(C(=O)C(C)OC(=O)c2ccc(NC(=O)CC#N)cc2)c(C)n1-c1ccc(OC(F)F)cc1` (stereo not drawn), the AC50 was > 26 µM (inactive). To `COC(=O)[C@H](CC(C)C)N(Cc1ccccc1)S(=O)(=O)N(Cc1ccc(OC)cc1)[C@@H](CC(C)C)C(=O)OC` belongs > 26 µM (inactive); to `Cn1nccc1C(=O)NC1CCCc2c1cnn2-c1ccc(C(C)(C)C)cc1` (stereo not drawn), > 26 µM (inactive). On to `COc1ccc(CC(=O)Nc2cccc(S(=O)(=O)N3CCCCCC3)c2)cc1OC`, for which the AC50 was > 26 µM (inactive). With `Cc1nnc(N/N=C/c2cc([N+](=O)[O-])c(N3CCC(C)CC3)cc2N2CCC(C)CC2)n1N`, the AC50 was > 26 µM (inactive). With `CCOC(=O)c1ccc(NC(=O)NCc2cccnc2)cc1` the figure was > 26 µM (inactive); with `C=C(C)C(=O)O[C@H]1C/C(C)=C\C(=O)/C=C(\C)[C@H](O)[C@@H]2OC(=O)C(=C)[C@@H]21`, 3 µM; with `COc1cccc(/C=N/NC(=O)c2c(-c3ccccc3)noc2C)c1O`, > 26 µM (inactive). Regarding `CC(=O)N1CCN(c2ccc(Oc3ccc([N+](=O)[O-])c(C(F)(F)F)c3)cc2)CC1`, the AC50 was > 26 µM (inactive). To `NC(=S)N/N=C/c1ccc(C23CC4CC(CC(C4)C2)C3)cc1` belongs > 26 µM (inactive). For the compound `COc1ccc(-c2cc(-c3ccccc3)[n+](C)c(-c3ccccc3)c2)cc1`, the AC50 was > 26 µM (inactive). With `Cc1ccc(N(CC(=O)Nc2cc(C)cc(C)c2)S(=O)(=O)c2c(C)noc2C)cc1` the figure was > 26 µM (inactive). For `O=C(/C=C/NNC(=O)c1ccccc1)c1ccc([N+](=O)[O-])cc1`, the AC50 was > 26 µM (inactive). To `COc1cc(OC)nc(-n2ncc(Br)c(Br)c2=O)n1` belongs > 26 µM (inactive). To `CCOc1ccc(OCc2ccc(C(=O)N/N=C(\C)c3ccccn3)cc2)cc1` belongs > 26 µM (inactive). To `CCCCOc1ccc(-c2cc(C(=O)NNC(=S)NCC)c3ccccc3n2)cc1` belongs > 26 µM (inactive). On to `Cc1cc(OCc2nc(-c3ccc(NC(=O)c4cccnc4)cc3)no2)ccc1Cl`, for which the AC50 was > 26 µM (inactive). To `COc1ccc(S(=O)(=O)Nc2cc(SCC(=O)O)c(O)c3ccccc23)cc1` belongs > 26 µM (inactive); to `CCN(CC)CCOC(=O)c1ccc(N/C=C(/C#N)c2nc(-c3ccc4c(c3)OCO4)cs2)cc1`, > 26 µM (inactive). Regarding `Oc1cccc(C(Nc2nccs2)c2ccc3cccnc3c2O)c1` (stereo not drawn), the AC50 was > 26 µM (inactive). With `COC(=O)c1cc(=O)n(CCc2ccccc2F)c(=Nc2ccc(F)c(Cl)c2)s1`, the AC50 is > 26 µM (inactive).

`C=CCN1C(=O)N/C(=C/c2ccc(N3CCOCC3)o2)C1=O`: the AC50 was > 12 µM (inactive). With `CCCN(CCC)c1nc(-c2ccccn2)nc2ccccc12` the figure was > 26 µM (inactive); with `CCCCOc1ccc(C(=O)NNC(=S)NC(=O)CC)cc1`, > 26 µM (inactive); with `CC(=O)C1=NN(c2ccccc2)C(c2cccs2)N1c1ccc(N(C)C)cc1` (stereo not drawn), > 26 µM (inactive). For `CCCCCCCCn1c2c(c(=N)c3c1CCC3)CCCC2`, the AC50 is > 26 µM (inactive). With `CCc1ccc(-n2c(C)cc(/C=N/NC(=O)c3ccncc3)c2C)cc1` the figure was > 26 µM (inactive); with `COCCCNC(=S)N/N=C/c1cccc(OC)c1O`, > 26 µM (inactive). To `O=[N+]([O-])c1ccc(NC(=S)NCCc2ccc(F)cc2)cc1` belongs > 26 µM (inactive); to `COc1ccccc1C(=O)Nc1nc(-c2ccc(S(=O)(=O)N3CCOCC3)cc2)cs1`, > 26 µM (inactive). To `CCOC(=O)C(=Cc1ccc(Br)cc1)C(=O)OCC` belongs > 26 µM (inactive); to `c1ccc(CN2CCN(Cc3c[nH]c4ccccc34)CC2)cc1`, > 26 µM (inactive). Turning to `O=C(c1ccc([N+](=O)[O-])s1)N1CCN(c2cccc(Cl)c2)CC1`, the AC50 is > 26 µM (inactive).

Turning to `O=C(NCc1cccnc1)Nc1ccc([N+](=O)[O-])cc1`, the AC50 was > 26 µM (inactive). With `O=C(NC(c1ccc(Cl)cc1)c1cc(Cl)c2cccnc2c1O)c1cccnc1` (stereo not drawn) the figure was > 26 µM (inactive); with `O=C(NCCc1ccccc1)[C@@H]1CC=C[C@@H]2CCN(Cc3ccc(Cl)c(Cl)c3)C(=O)[C@@H]21`, > 12 µM (inactive); with `CC1CN(S(=O)(=O)c2ccc(C(=O)NCCCn3ccnc3)cc2)CC(C)O1` (stereo not drawn), > 26 µM (inactive). For `COc1ccc(-c2nn(-c3ccccc3)cc2C(=O)OCC(=O)c2ccc(C)c([N+](=O)[O-])c2)cc1`, the AC50 was > 26 µM (inactive).

`CCC(=O)NC(c1ccc(OC)cc1)c1cc(Cl)c2cccnc2c1O` (stereo not drawn): the AC50 was > 26 µM (inactive).

Consider `CCc1c(C2(O)CCCCC2)[nH]c2cc(C(F)(F)F)ccc12`, for which the AC50 was > 26 µM (inactive). With `CC(=O)c1c(C)[nH]c(C(=O)OCCCCN2C(=O)c3ccccc3C2=O)c1C` the figure was > 26 µM (inactive). As to `O=[N+]([O-])c1ccc(Sc2cccc3cccnc23)c([N+](=O)[O-])c1`, the AC50 is > 26 µM (inactive). Take `COc1ccc(C(=O)N2CCN(c3ccc([N+](=O)[O-])c(NCCc4ccc(OC)c(OC)c4)c3)CC2)cc1`: the AC50 is > 26 µM (inactive). With `CC(=O)Nc1ccc(S(=O)(=O)NC2=C(N3CCN(c4ccc(F)cc4)CC3)C(=O)c3ccccc3C2=O)cc1` the figure was > 26 µM (inactive).

For `CCCC(=O)NC(c1ccccc1Cl)c1ccc2cccnc2c1O` (stereo not drawn), the AC50 was > 26 µM (inactive). With `COc1ccc(/C=C/C(=O)c2ccncc2)c2ccccc12` the figure was > 26 µM (inactive); with `C#CCOCCOCCOCCNc1nc(N2CCN(C(=O)CCCCCCCCCCNC(=O)[C@H]([C@@H](C)CC)n3cc(CCCCN=C(N)N)nn3)CC2)nc(N2CCN(C(=O)CCCCCCCCCCNC(=O)[C@H](CCCCN)n3cc(C)nn3)CC2)n1`, > 26 µM (inactive); with `C/C(=N\NC(=O)c1ccccc1OCc1ccc(F)cc1)c1ccccn1`, > 26 µM (inactive). With `CC(C)Nc1ccc(Nc2ccccc2)cc1` the figure was > 26 µM (inactive); with `CCN(CC)S(=O)(=O)c1cc(C)ccc1NC(=S)Nc1cccnc1`, > 26 µM (inactive).

Take `O=C(c1cc(-c2ccccc2Cl)nc2ccccc12)N1CCN(c2ccccn2)CC1`: the AC50 was 3.83 µM. With `c1ccc(CNc2nc(NCc3ccccc3)c3ccccc3n2)cc1`, the AC50 is > 26 µM (inactive). To `CS(=O)(=O)c1ncc(Cl)c(C(=O)Nc2ccc(OC(F)F)cc2)n1` belongs > 26 µM (inactive). With `COc1cc(/C=N/NC(=O)c2cccnc2)ccc1OC(=O)c1cc(OC)c(OC)c(OC)c1` the figure was > 26 µM (inactive); with `CCCCC(=O)NC(c1ccc(N(C)C)cc1)c1ccc2cccnc2c1O` (stereo not drawn), > 26 µM (inactive); with `CCC1CCCCN1C(=O)c1cc(COc2ccc3ncccc3c2)on1` (stereo not drawn), > 26 µM (inactive). With `CCOC(=O)c1cnc(-n2nc(C)cc2C)nc1Nc1ccc(N(C)C)cc1` the figure was > 26 µM (inactive).
